Assay results published in patent US12390437B2, “Itaconic acid derivatives and uses thereof intreating an inflammatory disease or a disease associated with an undesirable immune response” (Sitryx Therapeutics Limited, priority 2019, dated 2025).
Where a name gives a salt, the structure may show the parent alone.

system: IL-1β cytokine output from isolated primary human monocytes; assay: Primary human monocyte AlphaLISA IL-1β cytokine assay; assay type: cell-based; settings: CD14+ primary human monocytes, LPS 24 hr then Nigericin 1 hour
Description: Measuring Inhibitory Effects on IL-1β and IL-6 Cytokine Output from Isolated Primary Human Monocytes
(§1) The cytokine inhibition profiles of compounds of formula (IW-1) were determined in a CD14^+ isolated primary human monocyte cell assay. All assays were performed in RPMI-1640 growth medium (Gibco), supplemented with heat-inactivated fetal bovine serum (FBS) and 1% penicillin-streptomycin unless specified otherwise. The IL-1β and IL-6 cytokine inhibition assays were each run in a background of isolated primary human monocyte cells as described below. All reagents described were from Sigma-Aldrich unless specified otherwise. Compounds were prepared as 100 mM DMSO stocks.
Primary peripheral blood mononuclear cells (PBMCs) were isolated from human whole blood. Following PBMC isolation, a CD14^+ monocyte isolation step was conducted whereby CD14^+ magnetic beads (Miltenyi Biotec) were incubated for 15 minutes with the PBMC suspension that was previously treated with ice cold T-cell isolation buffer (PBS, 0.5% BSA, 2 mM EDTA). Following bead incubation, the treated cell suspension was passed through a magnetic separation column designed to positively select for magnetically labelled cells. The isolated CD14^+ monocytes were subsequently plated at the appropriate cell density for the assay, prior to compound treatment on the day of plating. Working concentrations of compounds were prepared separately in RPMI-1640 only growth medium and pre-incubated with the cells for 30 minutes (37° C./5% CO2). Following the 30 minute compound pre-incubation, primary monocytes were treated with an appropriate concentration of LPS and subsequently incubated for a 24 hr period (37° C./5% CO2). An appropriate final concentration of Nigericin was then dispensed into the primary monocyte plates and incubated for 1 hour (37° C./5% CO2) before monocyte supernatants were harvested and collected in separate polypropylene 96-well holding plates prior to commencing the AlphaLISA cytokine assay.
Reagents from each of the IL-1β and IL-6 commercial kits (Perkin Elmer) were prepared and run according to the manufacturer's instructions. Subsequently, fluorescence signal was measured in a microplate reader (EnVision® Multilabel Reader, Perkin Elmer).
(§2) Percentage inhibition was calculated per cytokine by normalising the sample data to the high and low controls used within each plate (+/−LPS respectively). Percentage inhibition was then plotted against compound concentration and the 50% inhibitory concentration (IC50) was determined from the resultant concentration-response curve.

Structure (SMILES) | IL-1β (IC50)
C=C(CC(=O)OCCCCCCCC)C(=O)OCCC(F)(F)F [Example 3, 4-octyl 1-(3,3,3-trifluoropropyl) 2-methylenesuccinate] | lower IC5s than dimethyl fumarate
C=C(CC(=O)OCCCCCCCC)C(=O)OCCN1C(=O)CCC1=O [Example 9, 1-(2-(2,5-dioxopyrrolidin-1-yl)ethyl) 4-octyl 2-methylenesuccinate] | lower IC5s than dimethyl fumarate
C=C(CC(=O)OCCCCCCCC)C(=O)OCCS(C)(=O)=O [Example 2, 1-(2-(methylsulfonyl)ethyl) 4-octyl 2-methylenesuccinate] | lower IC5s than dimethyl fumarate

same assay, conditions: Monocyte; CD14+ primary human monocytes, LPS 24 hr then Nigericin 1 hour

Structure (SMILES) | IC50 [µM]
C=C(CC(=O)OCCCCCCCC)C(=O)OCCC(F)(F)F [Example 3, 4-octyl 1-(3,3,3-trifluoropropyl) 2-methylenesuccinate] | 3.9
C=C(CC(=O)OCCCCCCCC)C(=O)OCCN1C(=O)CCC1=O [Example 9, 1-(2-(2,5-dioxopyrrolidin-1-yl)ethyl) 4-octyl 2-methylenesuccinate] | 3.3
C=C(CC(=O)OC1CCCCCCC1)C(=O)OCC(=O)O [Example 90, 2-((4-(cyclooctyloxy)-2-methylene-4-oxobutanoyl)oxy)acetic acid] | 81.3
COC(=O)/C=C/C(=O)OC [dimethyl fumarate, reference compound] | 8.5
C=C(CC(=O)O[C@H](C)CCCCCC)C(=O)OCC(=O)O [Example 112, (R)-2-((2-methylene-4-(octan-2-yloxy)-4-oxobutanoyl)oxy)acetic acid] | 13.7
C=C(CC(=O)OCCCCCCCC)C(=O)OCCS(C)(=O)=O [Example 2, 1-(2-(methylsulfonyl)ethyl) 4-octyl 2-methylenesuccinate] | 3.6
C=C(CC(=O)OCCCCCCCC)C(=O)OCCC#N [Example 1, 1-(2-cyanoethyl) 4-octyl 2-methylenesuccinate] | 8.9
C=C(CC(=O)O[C@H](C)CCCCCC)C(=O)OCCC(=O)O [Example 88, (R)-3-((2-methylene-4-(octan-2-yloxy)-4-oxobutanoyl)oxy)propanoic acid] | 17.3

system: IL-1β cytokine output from isolated primary HMDMs; assay: Primary human monocyte derived macrophages (HMDMs) AlphaLISA IL-1β cytokine assay; assay type: cell-based; settings: primary HMDMs (M-CSF 7 day), LPS 24 hr then Nigericin 1 hour
Description: Measuring Inhibitory Effects on IL-1β Cytokine Output from Isolated Primary HMDMs
as §1, with “a” for “a CD14^+ isolated primary human”, “monocyte differentiated macrophage” for “monocyte”, “IL-1β” for “IL-1β and IL-6”, “assay was” for “assays were each”, “HMDM” for “human monocyte”
Primary peripheral blood mononuclear cells (PBMCs) were isolated from human whole blood. Following PBMC isolation, a CD14^+ monocyte isolation step was conducted whereby CD14^+ magnetic beads (Miltenyi Biotec) were incubated for 15 minutes with the PBMC suspension that was previously treated with ice cold T-cell isolation buffer (PBS, 0.5% BSA, 2 mM EDTA). Following bead incubation, the treated cell suspension was passed through a magnetic separation column designed to positively select for magnetically labelled cells. The isolated CD14^+ monocytes were subsequently plated at an appropriate cell density and treated fora 7 day period with M-CSF (BioLegend) to drive macrophage differentiation. Following the differentiation period, working concentrations of compounds were prepared separately in RPMI-1640 only growth medium and pre-incubated with the cells for 30 minutes (37° C./5% CO2). Following the 30 minute compound pre-incubation, primary HMDMs were treated with an appropriate concentration of LPS and subsequently incubated for a 24 hr period (37° C./5% CO2). Nigericin was added and incubated for 1 hour prior to harvesting primary HMDM supernatants and collected in separate polypropylene 96-well holding plates prior to commencing the AlphaLISA cytokine assay.
Reagents from the IL-1β commercial kit (Perkin Elmer) was prepared and run according to the manufacturer's instructions. Subsequently, fluorescence signal was measured in a microplate reader (EnVision® Multilabel Reader, Perkin Elmer).
as §2

Structure (SMILES) | IC50 [µM]
C=C(CC(=O)OCCCCCCCC)C(=O)OCCC(F)(F)F [Example 3, 4-octyl 1-(3,3,3-trifluoropropyl) 2-methylenesuccinate] | 0.7
C=C(CC(=O)OCCCCCCCC)C(=O)OCCN1C(=O)CCC1=O [Example 9, 1-(2-(2,5-dioxopyrrolidin-1-yl)ethyl) 4-octyl 2-methylenesuccinate] | 1.2
COC(=O)/C=C/C(=O)OC [dimethyl fumarate, reference compound] | 2
C=C(CC(=O)OCCCCCCCC)C(=O)OC1COC1 [Example 4, 4-octyl 1-(oxetan-3-yl) 2-methylenesuccinate] | 0.4
C=C(CC(=O)OCCCCCCCC)C(=O)OCCS(C)(=O)=O [Example 2, 1-(2-(methylsulfonyl)ethyl) 4-octyl 2-methylenesuccinate] | 0.3
C=C(CC(=O)OCCCCCCCC)C(=O)OCCC#N [Example 1, 1-(2-cyanoethyl) 4-octyl 2-methylenesuccinate] | 0.4

system: NQO1; assay: NQO1 enzyme activation assay as a readout of NRF2 activation in THP-1 cells; assay type: cell-based; settings: Homo sapiens, THP-1; percentage activation at top concentration, normalised to DMF (100%) and vehicle controls
Description: NQO1 Enzyme Activation Assay as a Readout of NRF2 Activation in THP-1 Cellular Background
NAD(P)H dehydrogenase [quinone] […] Induction of this gene is concomitant with the inhibition of proinflammatory cytokine transcription and suppression of the inflammatory response (Kobayashi E. H. et al., 2016). The NQO1 enzyme activation activities of compounds of formula (IW-1) were determined using a cellular based NQO1 activation assay (Abcam). The NQO1 activation assay was run in differentiated THP-1 cells (a human monocyte-like cell line) as described below. All reagents described are from Sigma-Aldrich unless specified otherwise. Compounds were prepared as 10 mM DMSO stocks.
THP-1 cells were expanded as a suspension up to 80% confluence in appropriate growth medium. Cells were harvested, suspended, treated with phorbol 12-myristate 13-acetate (PMA) and plated according to the cell density required for each plate format over a 72 hr period (37° C./5% CO2).
Following 72 hrs of THP-1 cell incubation, cellular medium was removed and replaced with fresh media. Working concentrations of compounds were prepared and pre-incubated for 30 minutes (37° C./5% CO2). Compound treatment was then applied to the PMA treated THP-1 cell plate followed by LPS treatment. A ‘low’ (DMSO vehicle only) control and ‘high’ (designated concentration of dimethyl fumarate) was applied to each plate at the point of compound treatment. Cells were subsequently incubated for a 48 hr period (37° C./5% C02) after which all NQO1 assay reagents were prepared according to the manufacturer's instructions. NQO1 extraction buffer was applied to PBS washed THP-1 cells and incubated on ice for 15 minutes to prepare THP-1 lysates for the NQO1 activity assay. THP-1 lysates were diluted 1:5 with PBS and treated with a 1:1 volume of kit prepared NQO1 Reaction Buffer. Absorbance was subsequently measured kinetically on an appropriate reader over a 6 minute period.
For activation determination, the fold change in response per well was determined by first calculating the average NQO1 activation data for the vehicle control and then dividing the individual well response by the averaged NQO1 response for the vehicle control as shown below: Fold change=(Sample value)/MeanMin Where ‘Min’=vehicle control only
The relative 50% activation concentration (EC50) was determined from the resulting fold change response curve. The maximum efficacy (Emax) was reported as the percentage activation calculated at the top concentration of compound used in the titration applied. If a full curve was unattainable preventing a correct curve fit, the Emax value was extrapolated using existing curve data. All percentage activation data were normalised to the DMF and vehicle controls, meaning the Emax represents the percentage […] achieved by a compound at a particular concentration relative to that achieved by DMF (set as the ‘High’ control and therefore representative of 100% activation).

Structure (SMILES) | Emax [%]
C=C(CC(=O)OCCCCCCCC)C(=O)OCCC(F)(F)F [Example 3, 4-octyl 1-(3,3,3-trifluoropropyl) 2-methylenesuccinate] | 91
C=C(CC(=O)OCCCCCCCC)C(=O)OCCN1C(=O)CCC1=O [Example 9, 1-(2-(2,5-dioxopyrrolidin-1-yl)ethyl) 4-octyl 2-methylenesuccinate] | 98
COC(=O)/C=C/C(=O)OC [dimethyl fumarate, reference compound] | 126
C=C(CC(=O)OCCCCCCCC)C(=O)OC1COC1 [Example 4, 4-octyl 1-(oxetan-3-yl) 2-methylenesuccinate] | 171
C=C(CC(=O)OCCCCCCCC)C(=O)OCCS(C)(=O)=O [Example 2, 1-(2-(methylsulfonyl)ethyl) 4-octyl 2-methylenesuccinate] | 213
C=C(CC(=O)OCCCCCCCC)C(=O)OCCC#N [Example 1, 1-(2-cyanoethyl) 4-octyl 2-methylenesuccinate] | 167
C=C(CC(=O)OC)C(=O)OC [dimethyl itaconate, reference compound] | 144

same assay, conditions: Homo sapiens; differentiated THP-1 cells, LPS, 48 hr

Structure (SMILES) | EC50 [µM]
C=C(CC(=O)OCCCCCCCC)C(=O)OCCC(F)(F)F [Example 3, 4-octyl 1-(3,3,3-trifluoropropyl) 2-methylenesuccinate] | 14.7
C=C(CC(=O)OCCCCCCCC)C(=O)OCCN1C(=O)CCC1=O [Example 9, 1-(2-(2,5-dioxopyrrolidin-1-yl)ethyl) 4-octyl 2-methylenesuccinate] | 9.8
COC(=O)/C=C/C(=O)OC [dimethyl fumarate, reference compound] | 12.9
C=C(CC(=O)OCCCCCCCC)C(=O)OC1COC1 [Example 4, 4-octyl 1-(oxetan-3-yl) 2-methylenesuccinate] | 13.6
C=C(CC(=O)OCCCCCCCC)C(=O)OCCS(C)(=O)=O [Example 2, 1-(2-(methylsulfonyl)ethyl) 4-octyl 2-methylenesuccinate] | 4.6
C=C(CC(=O)OCCCCCCCC)C(=O)OCCC#N [Example 1, 1-(2-cyanoethyl) 4-octyl 2-methylenesuccinate] | 6.9
C=C(CC(=O)OC)C(=O)OC [dimethyl itaconate, reference compound] | 74.1
